# Reference: patent US4874759A, “5-Hydroxyindole-3-carboxylic acid amide compounds, pharmaceutical compositions and use” (Yoshitomi Pharmaceutical Industries, Ltd., priority 1987, dated 1989)
# Experiments:
# [1] = Acute toxicity (mortality) in mice; assay type: in vivo, ddY strain mice; conditions: ddY mice, 300 mg/kg
# [2] = Diuretic action (oral administration to rats; urine volume and electrolytes excreted within 6 hours); assay type: in vivo, Male Wistar strain rats; conditions: rat, p.o., average value ± average error
# Experimental: Male Wistar strain rats (each weighing 180 to 220 g, six animals per group) were subjected to the experiment after they had been fasted for 18 hours and further deprived of food and water for 3 hours.
# After the rats were orally administered with test compounds suspended in a 0.9% saline solution at the dose of 25 ml/kg, each of them was put in a metabolic cage. The urine excreted within 6 hours after the administration was collected, and the urine volume and sodium (Na), potassium (K) and chlorine (Cl) ions were assayed. The urine sodium and potassium ions were measured by the flame spectrophotometry and the chlorine ions were measured by the chloride counter.
# The test compounds were the compounds described below in Examples and the following (as applies to the following Pharmacological Experimental Examples), and the compounds numbers respectively correspond to the compound numbers described at the end of the compound names recited in Examples and the following. In the table, each of the numerals represents average value±average error and the mark * designates that the value is statistically significant as compared with the control by P<0.05 and mark ** designates that the value is statistically signficant by P<0.01.
# left coronary artery = assay: Action on coronary blood flow (perfused left coronary artery of anesthetized dog); assay type: in vivo, mongrel adult dog; conditions: intracoronary, dose increasing coronary blood flow to 50% of the effect of 3 μg Nifedipine
# Experimental: A mongrel adult dog was anesthetized by intravenous administration with sodium pentobarbital at the dose of 30 mg/kg body weight. In accordance with the method by Yago et al [Folia pharmacologica japonica, vol. 57, p. 380 (1961)], the left coronary artery was perfused and the volume of blood flow was measured. The test compounds were administered in the coronary artery at a dosage of 10 to 30 μl. The effects of the test compounds on the coronary blood flow were represented by ED50 (μg) which was determined as the dose required for increasing the coronary blood flow to the level of 50% of the effect which was attained by administering the coronary artery 3 μg of Nifedipine [dimethyl 2,6-dimethyl-4-(2-nitrophenyl)-1,4-dihydropyridine-3,5-dicarboxylate].
# 5-lipoxygenase = target: T1, 5-lipoxygenase (Cavia porcellus, UniProt A0A286X958); assay: 5-Lipoxygenase-inhibitory action (5-HETE production from arachidonic acid); assay type: biochemical; conditions: 3.4 μM [1-14C] arachidonic acid, 105,000×g supernatant of guinea pig polymorph leukocyte, 30° C., 3 minutes; read-out: 50% inhibitory concentration against the production of 5-HETE
# T1 construct: supernatant fraction of intraperitoneal polymorph leukocyte of guinea pigs was prepared; from tissue; host or cells: peritoneal polymorphonuclear leukocytes of male guinea pigs (casein-elicited), 105,000×g supernatant
# T1 sequence (A0A286X958 1-674): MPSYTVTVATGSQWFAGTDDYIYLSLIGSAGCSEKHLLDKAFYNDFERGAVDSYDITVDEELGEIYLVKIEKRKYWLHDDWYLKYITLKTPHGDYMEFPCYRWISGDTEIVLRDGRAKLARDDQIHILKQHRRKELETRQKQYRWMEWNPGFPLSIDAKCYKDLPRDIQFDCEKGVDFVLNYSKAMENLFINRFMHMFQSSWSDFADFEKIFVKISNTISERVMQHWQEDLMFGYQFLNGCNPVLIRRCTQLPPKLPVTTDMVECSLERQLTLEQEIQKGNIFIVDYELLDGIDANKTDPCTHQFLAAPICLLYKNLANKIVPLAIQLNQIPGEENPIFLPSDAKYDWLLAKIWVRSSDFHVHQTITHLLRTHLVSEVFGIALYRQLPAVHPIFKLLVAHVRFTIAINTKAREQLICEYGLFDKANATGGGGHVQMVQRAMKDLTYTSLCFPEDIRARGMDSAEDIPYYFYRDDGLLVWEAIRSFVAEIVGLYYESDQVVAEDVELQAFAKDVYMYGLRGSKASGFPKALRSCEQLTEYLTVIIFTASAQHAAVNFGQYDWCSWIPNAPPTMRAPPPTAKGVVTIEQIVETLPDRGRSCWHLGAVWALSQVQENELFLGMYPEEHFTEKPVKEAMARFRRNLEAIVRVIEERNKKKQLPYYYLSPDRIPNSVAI
# Experimental: In accordance with the method of Ochi et al (J. Biol. Chem., vol. 258, pp. 5754-5758 (1983)), the 105,000×g supernatant fraction of intraperitoneal polymorph leukocyte of guinea pigs was prepared, and the capability of producing 5-hydroxyeicosatetraenoic acid (5-HETE) from arachidonic acid was assayed.
# Male guinea pigs weighing about 500 g were intraperitoneally administered with 1/10 volume (at the dose of 10 ml/100 g body weight) of a 2% casein solution and operated in the abdomen 16-18 hours after the administration. The intraperitoneal effusion was taken and the insdie of the abdomen was washed with a saline solution containing 10 mM phosphate buffer solution (pH 7.4) twice. The obtained effusion and the washing solution were collected and centrifuged at 150×g for five minutes. A 0.2% saline solution was added to the sediment, followed by hypotonic treatment to subject the mixed erythrocyte to hemolysis. After a 1.6% saline solution was added thereto to make the mixture isotonic, it was centrifuged in the same manner and suspended in 50 mM Hepes buffer solution (pH 8.0). The suspension was treated with supersonic waves (by Branson sonifier, model 185) and centrifuged at 10,000×g for 10 minutes. The supernatant was further centrifuged at 105,000×g for 60 minutes. The supernatant thus obtained was taken as the 5-lipoxygenase fraction which was freezed to -70° C. to be preserved. […]
# right vertebrartery = assay: Action on vertebrarterial blood flow (perfused right vertebral artery of anesthetized dog); assay type: in vivo, mongrel adult dog; conditions: into vertebral artery, maximum increase by 100 μg papaverine hydrochloride = 100%
# Experimental: After mongrel adult dog was anesthetized by intravenous administration of sodium pentobarbital at the dose of 25 mg/kg body weight, the right vertebrartery was perfused and the volume of blood flow was measured. The test compounds were administered in the vertebral artery.
# With the maximum increase rate in the blood flow being taken as 100% when 100 μg of papaverine hydrochloride (1-[(3,4-dimethoxyphenyl)methyl]-6,7-dimethoxyisoquinoline hydrochloride) was administered in the vertebral artery, the effects of the test compounds were represented by ED100 (μg) which denotes the dose required for attaining an increased rate of the blood flow of 100%.
structure (smiles),measurement,setting,value
"Cc1[nH]c2cc(Br)c(O)c(CN3CCCCC3)c2c1C(=O)N1CCOCC1 [Compound (2), 4-(6-Bromo-5-hydroxy-2-methyl-4-piperidinomethyl-1H-indol-3-ylcarbonyl)morpholine]",Death of mice,[1]; intraperitoneal,none of them was observed to die
same,Death of mice,[1]; oral,none of them was observed to die
same,"Excretion of Electrolyte, Cl",[2]; 3.0 mg/kg,349 ± 27 μeq/100 g body weight/ 6 hrs.
same,"Excretion of Electrolyte, K",[2]; 3.0 mg/kg,95 ± 7 μeq/100 g body weight/ 6 hrs.
same,"Excretion of Electrolyte, Na",[2]; 3.0 mg/kg,284 ± 30 μeq/100 g body weight/ 6 hrs.
same,"Excretion of Electrolyte, Na/K",[2]; 3.0 mg/kg,3.1 ± 0.3
same,Urine Volume,[2]; 3.0 mg/kg,2.0 ± 0.2 ml/100 g body weight/ 6 hrs.
"CCCCN(CCCC)C(=O)c1c(C)n(CCc2ccccc2)c2cc(C(=O)CC)c(O)c(CN3CCCCC3)c12 [Compound (4), N,N-Dibutyl-5-hydroxy-2-methyl-1-(2-phenylethyl)-4-piperidinomethyl-6-propionylindole-3-carboxamide]","Coronary vasodilating action, ED50",left coronary artery,12 µg
same,IC50,5-lipoxygenase,20 µM
same,"Vertebrarterial vasodilating action, ED100",right vertebrartery,63 µg
"CCCCCCn1c(C)c(C(=O)N(CCCC)CCCC)c2c(CN3CCCCC3)c(O)c(C(=O)CC)cc21 [Compound (6), N,N-dibutyl-1-hexyl-5-hydroxy-2-methyl-4-piperidinomethyl-6-propionylindole-3-carboxamide]","Coronary vasodilating action, ED50",left coronary artery,10 µg
same,"Vertebrarterial vasodilating action, ED100",right vertebrartery,48 µg
"CCCCNC(=O)c1c(C)n(CCCC)c2ccc(O)c(CN3CCCCC3)c12 [Compound (8), 1,N-Dibutyl-5-hydroxy-2-methyl-4-piperidinomethylindole-3-carboxamide]","Coronary vasodilating action, ED50",left coronary artery,63 µg
same,"Vertebrarterial vasodilating action, ED100",right vertebrartery,58 µg
"CCCCNC(=O)c1c(C)[nH]c2cc(Br)c(O)c(CN3CCCCC3)c12 [Compound (10), 6-Bromo-N-butyl-5-hydroxy-2-methyl-4-piperidinomethylindole-3-carboxamide]","Excretion of Electrolyte, Cl",[2]; 10.0 mg/kg,379 ± 35 μeq/100 g body weight/ 6 hrs.
same,"Excretion of Electrolyte, K",[2]; 10.0 mg/kg,73 ± 8 μeq/100 g body weight/ 6 hrs.
same,"Excretion of Electrolyte, Na",[2]; 10.0 mg/kg,402 ± 43 μeq/100 g body weight/ 6 hrs.
same,"Excretion of Electrolyte, Na/K",[2]; 10.0 mg/kg,5.8 ± 0.7
same,Urine Volume,[2]; 10.0 mg/kg,2.6 ± 0.3 ml/100 g body weight/ 6 hrs.
"CCCCN(CCCC)C(=O)c1c(C)[nH]c2ccc(O)c(CN3CCCCC3)c12 [Compound (17), N,N-Dibutyl-5-hydroxy-2-methyl-4-piperidinomethylindole-3-carboxamide]","Excretion of Electrolyte, Cl",[2]; 10.0 mg/kg,358 ± 25 μeq/100 g body weight/ 6 hrs.
same,"Excretion of Electrolyte, K",[2]; 10.0 mg/kg,64 ± 4 μeq/100 g body weight/ 6 hrs.
same,"Excretion of Electrolyte, Na",[2]; 10.0 mg/kg,346 ± 28 μeq/100 g body weight/ 6 hrs.
same,"Excretion of Electrolyte, Na/K",[2]; 10.0 mg/kg,5.7 ± 0.9
same,Urine Volume,[2]; 10.0 mg/kg,2.4 ± 0.2 ml/100 g body weight/ 6 hrs.
"CCCCN(CCCC)C(=O)c1c(C)n(-c2ccccc2)c2cc(C(=O)CC)c(O)c(CN3CCCCC3)c12 [Compound (25), N,N-Dibutyl-5-hydroxy-2-methyl-1-phenyl-4-piperidinomethyl-6-propionylindole-3-carboxamide]","Coronary vasodilating action, ED50",left coronary artery,22 µg
same,IC50,5-lipoxygenase,19 µM
same,"Vertebrarterial vasodilating action, ED100",right vertebrartery,76 µg
